In ChEMBL document CHEMBL4376892, “Identification of Parthenolide Dimers as Activators of Pyruvate Kinase M2 in Xenografts of Glioblastoma Multiforme in Vivo” (J Med Chem, 2020):
Each block holds one compound with its values, some of them ahead of it. Activity calls are given as the source filed them. The rule behind the calls is not given here.

Experiments:
[1] = Antiproliferative activity against human SHG44 cells assessed as reduction in cell viability after 72 hrs by MTT assay; assay type: functional, cell-based; details: SHG-44, 72 h
NIH3T3 = test: Cytotoxicity against mouse 3T3 cells assessed as reduction in cell viability after 72 hrs by MTT assay; assay type: cell-based; details: NIH3T3, 72 h
SF-126 = test: Antiproliferative activity against human SF126 cells assessed as reduction in cell viability after 72 hrs by MTT assay; assay type: functional, cell-based; details: SF-126, 72 h
U-87 MG = test: Antiproliferative activity against human U87 cells assessed as reduction in cell viability after 72 hrs by MTT assay; assay type: functional, cell-based, U-87MG ATCC
Pyruvate kinase PKM [2] = target: T1, Pyruvate kinase PKM (Homo sapiens, UniProt P14618); test: Activation of recombinant human N-terminal 6His-tagged PKM2 expressed in Escherichia coli BL21 cells at 10 uM after 30 mins by fluorescence based analysis relative to control
Target sequence in this assay (P14618 2-531 limits assumed): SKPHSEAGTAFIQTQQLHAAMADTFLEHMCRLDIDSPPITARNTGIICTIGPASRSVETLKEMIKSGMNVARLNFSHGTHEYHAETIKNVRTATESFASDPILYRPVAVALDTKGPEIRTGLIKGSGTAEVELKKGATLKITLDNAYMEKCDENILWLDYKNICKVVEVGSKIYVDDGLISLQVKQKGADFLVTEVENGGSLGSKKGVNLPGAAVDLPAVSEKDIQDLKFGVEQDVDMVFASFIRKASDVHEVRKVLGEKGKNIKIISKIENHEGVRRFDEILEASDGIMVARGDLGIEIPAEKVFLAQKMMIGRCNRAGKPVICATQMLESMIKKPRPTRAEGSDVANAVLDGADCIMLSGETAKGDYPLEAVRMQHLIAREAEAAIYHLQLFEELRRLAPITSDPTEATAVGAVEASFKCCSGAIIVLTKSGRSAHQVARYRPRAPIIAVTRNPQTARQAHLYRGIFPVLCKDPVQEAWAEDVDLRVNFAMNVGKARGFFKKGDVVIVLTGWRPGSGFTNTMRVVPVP

C6 = test: Antiproliferative activity against rat C6 cells assessed as reduction in cell viability after 72 hrs by MTT assay; assay type: functional, cell-based; details: C6, 72 h
U-118-MG [3] = test: Antiproliferative activity against human U118MG cells assessed as reduction in cell viability after 72 hrs by MTT assay; assay type: functional, cell-based
U-251 = test: Antiproliferative activity against human U251 cells assessed as reduction in cell viability after 72 hrs by MTT assay; assay type: functional, cell-based; details: U-251, 72 h
Mus musculus [4] = test: Reduction in Bcl2 protein expression in tumor of Bar b/c nude mouse xenografted with human U118MG cells at 50 mg/kg, ip adminstered every 3 days for 3 weeks and measured after 20 days by Western blot analysis; assay type: functional, organism-based
U-118-MG [5] = test: Antitumor activity against human U118MG cells xenografted in siPKM2-treated Bar b/c nude mouse assessed as tumor growth at 50 mg/kg, ip adminstered twice weekly for 3 weeks measured every 3 days for 20 days by caliper method; assay type: functional, organism-based
[6] = Toxicity in Bar b/c nude mouse xenografted with human U118MG cells assessed as effect on body weight at 50 mg/kg, ip adminstered twice weekly for 3 weeks and measured every 3 days for 20 days; assay type: organism-based; details: in vivo, 480 h
Mus musculus [7] = test: Reduction in vimentin protein expression in tumor of siPKM2-treated Bar b/c nude mouse xenografted with human U118MG cells at 50 mg/kg, ip adminstered twice weekly for 3 weeks and measured after 20 days by immunohistochemical analysis; assay type: functional, organism-based
Mus musculus [8] = test: Reduction in Bcl2 protein expression in tumor of siPKM2-treated Bar b/c nude mouse xenografted with human U118MG cells at 50 mg/kg, ip adminstered twice weekly for 3 weeks and measured after 20 days by immunohistochemical analysis; assay type: functional, organism-based
Mus musculus [9] = test: Reduction in vimentin protein expression in tumor of Bar b/c nude mouse xenografted with human U118MG cells at 50 mg/kg, ip adminstered twice weekly for 3 weeks and measured after 20 days by immunohistochemical analysis; assay type: functional, organism-based
U-118-MG [10] = test: Antitumor activity against human U118MG cells xenografted in Bar b/c nude mouse assessed as reduction in tumor weight at 50 mg/kg, ip adminstered twice weekly for 3 weeks and measured every 3 days for 20 days by caliper method; assay type: functional, organism-based
Mus musculus [11] = test: Increase in E-cadherin protein expression in tumor of siPKM2-treated Bar b/c nude mouse xenografted with human U118MG cells at 50 mg/kg, ip adminstered twice weekly for 3 weeks and measured after 20 days by immunohistochemical analysis; assay type: functional, organism-based
Mus musculus [12] = test: Increase in E-cadherin protein expression in tumor of Bar b/c nude mouse xenografted with human U118MG cells at 50 mg/kg, ip adminstered twice weekly for 3 weeks and measured after 20 days by immunohistochemical analysis; assay type: functional, organism-based
Mus musculus [13] = test: Reduction in Bcl2 gene expression in tumor of Bar b/c nude mouse xenografted with human U118MG cells at 50 mg/kg, ip adminstered every 3 days for 3 weeks; assay type: functional, organism-based
Mus musculus [14] = test: Increase in E-cadherin gene expression in tumor of Bar b/c nude mouse xenografted with human U118MG cells at 50 mg/kg, ip adminstered every 3 days for 3 weeks; assay type: functional, organism-based
Mus musculus [15] = test: Reduction in phosphorylated STAT3 expression in tumor of siPKM2-treated Bar b/c nude mouse xenografted with human U118MG cells at 50 mg/kg, ip adminstered twice weekly for 3 weeks and measured after 20 days by immunohistochemical analysis; assay type: functional, organism-based
Mus musculus [16] = test: Increase in bax protein expression in tumor of siPKM2-treated Bar b/c nude mouse xenografted with human U118MG cells at 50 mg/kg, ip adminstered twice weekly for 3 weeks and measured after 20 days by immunohistochemical analysis; assay type: functional, organism-based
U-118-MG [17] = test: Antitumor activity against human U118MG cells xenografted in Bar b/c nude mouse assessed as reduction in tumor growth at 50 mg/kg, ip adminstered twice weekly for 3 weeks and measured every 3 days for 20 days by caliper method; assay type: functional, organism-based
Mus musculus [18] = test: Reduction in vimentin protein expression in tumor of Bar b/c nude mouse xenografted with human U118MG cells at 50 mg/kg, ip adminstered every 3 days for 3 weeks and measured after 20 days by Western blot analysis; assay type: functional, organism-based
Mus musculus [19] = test: Increase in E-cadherin protein expression in tumor of Bar b/c nude mouse xenografted with human U118MG cells at 50 mg/kg, ip adminstered every 3 days for 3 weeks and measured after 20 days by Western blot analysis; assay type: functional, organism-based
Mus musculus [20] = test: Reduction in STAT3 gene expression in tumor of Bar b/c nude mouse xenografted with human U118MG cells at 50 mg/kg, ip adminstered every 3 days for 3 weeks; assay type: functional, organism-based
Mus musculus [21] = test: Reduction in STAT3 protein expression in tumor of Bar b/c nude mouse xenografted with human U118MG cells at 50 mg/kg, ip adminstered every 3 days for 3 weeks and measured after 20 days by Western blot analysis; assay type: functional, organism-based
Mus musculus [22] = test: Increase in Bax protein expression in tumor of Bar b/c nude mouse xenografted with human U118MG cells at 50 mg/kg, ip adminstered every 3 days for 3 weeks and measured after 20 days by Western blot analysis; assay type: functional, organism-based
Mus musculus [23] = test: Reduction in Bcl2 protein expression in tumor of Bar b/c nude mouse xenografted with human U118MG cells at 50 mg/kg, ip adminstered twice weekly for 3 weeks and measured after 20 days by immunohistochemical analysis; assay type: functional, organism-based
Mus musculus [24] = test: Increase in bax protein expression in tumor of Bar b/c nude mouse xenografted with human U118MG cells at 50 mg/kg, ip adminstered twice weekly for 3 weeks and measured after 20 days by immunohistochemical analysis; assay type: functional, organism-based
Mus musculus [25] = test: Reduction in phosphorylated STAT3 expression in tumor of Bar b/c nude mouse xenografted with human U118MG cells at 50 mg/kg, ip adminstered twice weekly for 3 weeks and measured after 20 days by immunohistochemical analysis; assay type: functional, organism-based
Pyruvate kinase PKM [26] = target: T1, Pyruvate kinase PKM; test: Activation of recombinant human N-terminal 6His-tagged PKM2 expressed in Escherichia coli BL21 cells after 50 mins by fluorescence based analysis
Target sequence in this assay (P14618 whole entry): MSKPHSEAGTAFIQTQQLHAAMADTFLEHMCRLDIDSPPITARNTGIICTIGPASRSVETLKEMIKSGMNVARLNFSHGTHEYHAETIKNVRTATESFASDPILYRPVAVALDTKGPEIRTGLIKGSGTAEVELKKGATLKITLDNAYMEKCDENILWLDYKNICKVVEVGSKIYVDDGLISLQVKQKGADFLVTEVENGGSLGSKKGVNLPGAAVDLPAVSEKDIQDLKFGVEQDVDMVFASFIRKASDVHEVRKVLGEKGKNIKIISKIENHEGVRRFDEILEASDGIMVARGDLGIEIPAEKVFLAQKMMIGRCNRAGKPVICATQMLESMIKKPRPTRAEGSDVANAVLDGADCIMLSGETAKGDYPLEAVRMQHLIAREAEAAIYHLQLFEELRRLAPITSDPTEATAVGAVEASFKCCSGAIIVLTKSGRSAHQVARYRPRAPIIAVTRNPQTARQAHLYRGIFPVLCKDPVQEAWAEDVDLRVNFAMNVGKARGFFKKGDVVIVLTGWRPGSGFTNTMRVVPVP

IC50 (U-87 MG): 15.1 µM | fold change (FC) (Pyruvate kinase PKM [2]): > 2 | IC50 (U-251): > 50 µM
SMILES: C=C1C(=O)O[C@H]2[C@H]1CC/C(C(=O)OCCOCCOCCOCCOCCOCCOC(=O)/C1=C/CC[C@@]3(C)O[C@H]3[C@H]3OC(=O)C(=C)[C@@H]3CC1)=C\CC[C@@]1(C)O[C@@H]21
IC50 [1]: > 50 µM | IC50 (NIH3T3): > 50 µM | IC50 (SF-126): > 50 µM | IC50 (C6): > 50 µM | IC50 (U-118-MG [3]): 10.6 µM

IC50 (U-87 MG): > 50 µM | fold change (FC) (Pyruvate kinase PKM [2]): > 2 | IC50 (U-251): > 50 µM
SMILES: C=C1C(=O)O[C@H]2[C@H]1CC/C(C(=O)OCCOCCOCCOCCOCCOCCOCCOCCOCCOCCOCCOCCOCCOCCOCCOCCOCCOCCOCCOCCOC(=O)/C1=C/CC[C@@]3(C)O[C@H]3[C@H]3OC(=O)C(=C)[C@@H]3CC1)=C\CC[C@@]1(C)O[C@@H]21
IC50 [1]: > 50 µM | IC50 (NIH3T3): > 50 µM | IC50 (SF-126): > 50 µM | IC50 (C6): > 50 µM | IC50 (U-118-MG [3]): > 50 µM

IC50 (U-87 MG): 86.3 µM | IC50 (U-251): 65.4 µM
SMILES: Cn1c2cc([S+](C)[O-])sc2c2cnn(Cc3cccc(N)c3)c(=O)c21 (stereo not given)
IC50 [1]: 49 µM | IC50 (NIH3T3): 56.6 µM | IC50 (SF-126): 89 µM | IC50 (C6): 81.8 µM | IC50 (U-118-MG [3]): 85 µM

SMILES: CN(C)C[C@@H]1C(=O)O[C@H]2[C@H]1CC/C(C(=O)OCCOCCOC(=O)/C1=C/CC[C@@]3(C)O[C@H]3[C@H]3OC(=O)[C@@H](CN(C)C)[C@@H]3CC1)=C\CC[C@@]1(C)O[C@@H]21.O=C(O)/C=C/C(=O)O.O=C(O)/C=C/C(=O)O
inhibition (Mus musculus [4]): Active | Activity (U-118-MG [5]): inactive | Activity [6]: Non-Toxic | inhibition (Mus musculus [7]): inactive | inhibition (Mus musculus [8]): inactive | inhibition (Mus musculus [9]): Active | Activity (U-118-MG [10]): Active | Activity (Mus musculus [11]): inactive | Activity (Mus musculus [12]): Active | inhibition (Mus musculus [13]): Active | Activity (Mus musculus [14]): Active | inhibition (Mus musculus [15]): inactive | Activity (Mus musculus [16]): inactive | Activity (U-118-MG [17]): Active | inhibition (Mus musculus [18]): Active | Activity (Mus musculus [19]): Active | inhibition (Mus musculus [20]): Active | inhibition (Mus musculus [21]): Active | Activity (Mus musculus [22]): Active | inhibition (Mus musculus [23]): Active | Activity (Mus musculus [24]): Active | inhibition (Mus musculus [25]): Active

IC50 (U-87 MG): 10.6 µM | fold change (FC) (Pyruvate kinase PKM [2]): > 2 | IC50 (U-251): 14.1 µM
SMILES: C=C1C(=O)O[C@H]2[C@H]1CC/C(C(=O)OCCOCCOCCOCCOCCOC(=O)/C1=C/CC[C@@]3(C)O[C@H]3[C@H]3OC(=O)C(=C)[C@@H]3CC1)=C\CC[C@@]1(C)O[C@@H]21
IC50 [1]: 18.5 µM | IC50 (NIH3T3): 18.8 µM | IC50 (SF-126): 21 µM | IC50 (C6): 4.82 µM | IC50 (U-118-MG [3]): 7.5 µM

AC50 (Pyruvate kinase PKM [26]): 0.052 µM | IC50 (U-87 MG): 3.09 µM | fold change (FC) (Pyruvate kinase PKM [2]): > 2 | IC50 (U-251): 9.59 µM
SMILES: C=C1C(=O)O[C@H]2[C@H]1CC/C(C(=O)OCCOCCOCCOC(=O)/C1=C/CC[C@@]3(C)O[C@H]3[C@H]3OC(=O)C(=C)[C@@H]3CC1)=C\CC[C@@]1(C)O[C@@H]21
IC50 [1]: 10.5 µM | IC50 (NIH3T3): 7.86 µM | IC50 (SF-126): 10.2 µM | IC50 (C6): 1.59 µM | IC50 (U-118-MG [3]): 2.87 µM

IC50 (U-87 MG): 16.2 µM | fold change (FC) (Pyruvate kinase PKM [2]): > 2 | IC50 (U-251): > 50 µM
SMILES: C=C1C(=O)O[C@H]2[C@H]1CC/C(C(=O)OCCOCCOCCOCCOCCOCCOCCOCCOCCOCCOCCOCCOC(=O)/C1=C/CC[C@@]3(C)O[C@H]3[C@H]3OC(=O)C(=C)[C@@H]3CC1)=C\CC[C@@]1(C)O[C@@H]21
IC50 [1]: 50.1 µM | IC50 (NIH3T3): > 50 µM | IC50 (SF-126): > 50 µM | IC50 (C6): > 50 µM | IC50 (U-118-MG [3]): 17.4 µM
